The text below walks through data of patent US10086010B2 (STC.UNM, priority 2014, dated 2018).

Usually GI50 stands for the concentration that inhibits growth by half.

Data set [1] deals with HT-29 cells. As to the kind of experiment: CyQUANT cell proliferation assay. Type of data set: cell-based, human. Particulars: 3AB present with 5-FU and hmUdR for 72 h. On the procedure:
Cell proliferation assays measuring genomic DNA were carried out using the CyQUANT kit (Invitrogen). In these experiments, the cells after drug treatments were replated to grow in the absence of the drugs for six days, and their nucleic acids was quantitated by CyQUANT assay. These assays were also conducted in triplicate.

For data set [2], the system named is HT-29 cells. The data set is described as follows: Alkaline comet assay (single-strand breaks). The class given is cell-based, human. Particulars: 48 h; for number of DNA single-strand breaks: 0.5 μM 5-FU and/or 5 μM hmUdR. The protocol:
(§1) After incubation for indicated time periods (12-48 h), the cells were trypsinized and washed in PBS. For time course experiments, cells harvested at each time point were stored in 10% DMSO/40% DMEM/50% FBS at −80° C. until slide processing. Approximately 5,000 cells were spread in 0.9% low-melting point agarose/PBS on CometSlide (Trevigen), and chilled at 4° C. in the dark for 20 min.
For alkaline comet assay, slides were soaked in precooled lysis buffer containing 2.5 M NaCl/100 mM EDTA/10 mM Tris/1% sarkosyl/1% Triton X-100 at 4° C. for 45 min, followed by soaking in precooled 300 mM NaOH/1 mM EDTA at 4° C. for 45 min. Subsequently, slides were electrophoresed in 300 mM NaOH/1 mM EDTA at 1.4 V/cm for 20 min at 4° C., washed in 70% ethanol for 5 min, and allowed to dry in the dark. Cellular DNA was stained with 1×SYBR Green I (Molecular Probes) 30 min before analysis with a fluorescence microscope. Alkaline comet assays were performed in triplicate and more than 30 comets for each condition were photographed at the Light Microscope Facility at Fox Chase Cancer Center, and analyzed by CometScore software (TriTek).

Data set [3] has as its system HT-29 cells. As to the kind of experiment: Cell cycle analysis by flow cytometry. Type of data set: cell-based, human. The protocol: HT-29 cells that were seeded at 2×10^6 cells/plate in 10 cm dishes and incubated with 20 ng/ml nocodazole for 18 h. […] The synchronized cells were washed with PBS prior to the addition of fresh medium containing the indicated nucleosides and/or bases.
Cells grown in 10 cm dishes were trypsinized, spun down and suspended in 10 ml PBS containing 0.5% FBS. […], the cells were resuspended in 0.5 ml PBS/0.5% FBS, and fixed in 5 ml 70% ethanol at −20° C. […] and washing with 10 ml PBS/0.5% FBS, the cells were suspended in 1.5 ml PBS/0.5% FBS containing 10 μg/ml propidium iodide and 50 μg/ml RNase A, and incubated at 37° C. for 30 min. Cell cycle distribution was analyzed with a FACScan flow analyzer (Becton Dickinson).
Background: Flow cytometry measures light scatter and fluorescence of single cells or particles in a stream.

The test system of data set [4] is HT-29 cells. The data set is described as follows: WST-1 cell growth/viability assay, HT-29. Particulars: for effect of PARP inhibitor on the reduction in succinate-tetrazolium reductase activity by 5-FU and hmUdR: inhibitor added simultaneously with 5-FU and hmUdR; for GI50: Homo sapiens, HT-29, 72 h, 72 hours. The class given is cell-based, human. On the procedure:
Indicated concentrations of drugs were added to wells one day after seeding. […] Cell proliferation was quantitated by measuring 450 nm absorbance and 600 nm as a background. All assays were performed in triplicate. […] The minimal combination index […] for each cell line was obtained from the isobologram parameters.
(Tetrazolium assays rely on reduction of a dye to a coloured formazan, in cell work by metabolically active cells.)

Data set [5] relates to HT-29 cells. As to the kind of experiment: Neutral comet assay (double-strand breaks). Particulars: 0.5 μM FU and/or 5 μM hmUdR, 48 h. The class given is cell-based, human. The protocol:
as §1
For neutral comet assay, slides were soaked in precooled lysis buffer at 4° C. for 30 min, followed by washing in precooled 1×TBE buffer (90 mM Tris-borate, pH8.3, 2 mM EDTA). Slides were electrophoresed in 1×TBE buffer at 2 V/cm for 20 min at 4° C., rinsed in deionized water, washed in 70% ethanol for 5 min, and allowed to dry in the dark. Subsequently, slides were processed as above for DNA staining and comet analyses. Neutral comet assays were conducted in duplicate, in each of which more than 60 comets for each condition were analyzed.

The test system of a further data set is HT-29 cellular DNA. The data set is described as follows: Quantitation of 5-FU and hmUdR incorporated into cellular DNA. Particulars: at 48 h. The class given is cell-based, human. The protocol: [6-^3H]-5-FU (18 Ci/mmol) and of [^3H]-hmUdR (10 Ci/mmole) were purchased from Moravek Biochemicals. […] At 24 or 48 h after drug addition, cells were washed with PBS and their DNA was recovered with Trizol (Invitrogen) according to the manufacturer's instruction. Subsequently the recovered DNA was quantitated by 260 nm absorbance, and its radioactivity was measured by liquid scintillation counting.

A further data set has as its system human CRC HT-29 cells. The data set is described as follows: Cell growth assay, Example 2. Type of data set: cell-based.
The test system of data set [6] is HT-29 cells expressing GFP-H2B. As to the kind of experiment: Time-lapse microscopy of cell divisions. Particulars: 0.5 μM 5-FU and/or 5 μM hmUdR. Type of data set: cell-based, human. The protocol:
HT-29 cells were infected with a retroviral vector for expression of […] histone H2B. HT-29 cells expressing GFP-H2B were seeded at 2×10^5 cells/well in 6-well plates. On the following day, drug treatments were initiated and cell proliferation was monitored by time-lapse microscopy. Image acquisition was done at the Light Microscope Facility at Fox Chase Cancer Center using phase-contrast and GFP-specific fluorescence microscopy (Nikon TE2000S) controlled by Metamorph (Molecular Devices). Images were captured at a rate of one frame per 15 minutes for 60 hours, in which cells were kept at 37° C. Images were captured from 10 areas per well. The number of cell divisions that occurred in each area was counted for the first 24 h and the second 24 h periods.

In the next data set the test system is PARP1. As to the kind of experiment: Immunoblot detection of PARP1 cleavage. Type of data set: cell-based, human. Particulars: 5-FU and hmUdR 72 h; control 50 μM LY294002 1 h followed by 4 h 100 μg/ml TRAIL. The protocol: After […] on ice, cells were scraped and […] for 10 min at 4° C. The supernatant was recovered. This whole cell extract (50 μg protein) was subjected to SDS-containing polyacrylamide gel electrophoresis, and transferred to Immobilon-P membrane (Millipore). For detection of poly(ADP-ribose), the nuclear pellet was recovered after removing the whole cell extract as prepared above except that the lysis buffer was supplemented with 50 μM ethacridine, an inhibitor of poly(ADP-ribose) glycohydrolase. 10 μg protein of the nuclear pellet was subjected to gel electrophoresis and transfer to membrane as described above. Primary antibodies used in this study were anti-PARP1 monoclonal mouse antibody (Trevigen), anti-p62 polyclonal rabbit antibody (Santa Cruz Biotechnology), anti-LC3 polyclonal rabbit antibody (Novus Biologicals), anti-β-actin monoclonal mouse antibody (Sigma), and anti-PCNA monoclonal antibody (PC10; Santa Cruz Biotechnology), anti-poly(ADP-ribose) mouse monoclonal antibody (Tulip Biolabs). […] Immunoblot signals were detected either by Odyssey Imaging System (LI-COR Biotechnology) or by exposure of X-ray films to the membrane soaked in ECL reagent (GE Healthcare).
(A western blot detects proteins with antibodies after separation by electrophoresis.)

Setting [7] is: 0.5 μM 5-FU + 5 μM hmUdR, WST-1.
Where [8] appears, read: 5 mM caffeine for the last 24 h.

Read-outs that look alike come from different tables or passages of the source.

As for `NC(=O)c1cccc(N)c1` [3AB, 3-aminobenzamide], the “rescue of the effect of 5-FU and hmUdR on cell proliferation (CyQUANT)” value in the data set with HT-29 cells [1] is on record as “did not rescue”. In addition, the “effect of 3AB on the number of strand breaks caused by 5-FU and hmUdR” value in the data set on HT-29 cells [2] (3 mM 3AB, 0.5 μM 5-FU, 5 μM hmUdR) is “significantly decreased”. Moreover, the “effect of 3AB on the S phase arrest induced by 5-FU and hmUdR” value in the data set with HT-29 cells [3] (3 mM 3AB added simultaneously with 0.5 μM 5-FU and 5 μM hmUdR) is “enabled most cells to progress through S phase to G2/M”. The “effect of PARP inhibitor on the reduction in succinate-tetrazolium reductase activity by 5-FU and hmUdR” value in the data set on HT-29 cells [4] was “partially corrected”.
`O=c1[nH]cc(F)c(=O)[nH]1` [5-FU, 5-fluorouracil]: the “number of DNA single-strand breaks” value in the data set with HT-29 cells [2] is “did not significantly increase”. Besides, the “number of double strand breaks” value in the data set with HT-29 cells [5] is “no significant effect”. In the data set on HT-29 cells [3] (unsynchronized HT-29 cells, 0.5 μM 5-FU and/or 5 μM hmUdR, 48 h), the “cells accumulated in S phase” value is 52%. In the data set on HT-29 cellular DNA, the “incorporation of 5-FU into cellular DNA in the presence of hmUdR” value is “decreased”. Besides, in the data set with human CRC HT-29 cells, the “effect on HT-29 cell growth of increasing concentration in the absence of fdU” value is recorded as “minimal effect”. Also, the GI50 is 19 µM in the data set on HT-29 cells [4] (read-out: GI50 of HT-29 cells for 5-FU, 5-FU alone) and under 0.1 µM in the data set on HT-29 cells [4] (read-out: GI50 of HT-29 cells for 5-FU, combined with hmUdR).
Regarding `O=c1[nH]cc(CO)c(=O)[nH]1` [5-hydroxymethyluracil], the “enhancement of 5-FU activity / synergy with 5-FU” value in the data set with HT-29 cells [4] (HT-29, 72 hours) was “did not significantly enhance”.
For `C[C@]1(c2nc3c(C(N)=O)cccc3[nH]2)CCCN1` [ABT-888], the “effect of PARP inhibitor on the reduction in succinate-tetrazolium reductase activity by 5-FU and hmUdR” value with HT-29 cells [4] is on record as “partially corrected”.
As for `CN1C(=O)C(Cc2c[nH]c3ccccc23)NC1=S` (stereo not shown) [Nec-1], the “effect of necroptosis inhibitor on the growth inhibition effect of 5-FU and hmUdR” value in the data set with HT-29 cells [4] (setting [7]) is given as “did not reduce”.
In the case of `COC(=O)CC(NC(=O)C(NC(=O)c1ccc2ccccc2n1)C(C)C)C(=O)COc1c(F)cccc1F` (stereo not shown) [QVD, Quinolyl-valyl-O-methylaspartyl-[-2,6-difluorophenoxy]-methyl ketone], the “effect of caspase inhibitor on the growth inhibition effect of 5-FU and hmUdR” value in the data set with HT-29 cells [4] (setting [7]) was “did not diminish”.
For `O=c1ccn([C@H]2C[C@H](O)[C@@H](CO)O2)c(=O)[nH]1` [UdR, 2′-deoxyuridine], the “enhancement of 5-FU activity / synergy with 5-FU” value with HT-29 cells [4] (HT-29, 72 hours) is “neither UdR nor heUdR significantly enhanced”.
On to `Cn1c(=O)c2c(ncn2C)n(C)c1=O` [caffeine], for which, in the data set on HT-29 cells [3] (setting [8]), the “effect of caffeine on the S phase arrest induced by 5-FU alone” value was “abolished”; the “effect of caffeine on the S phase arrest induced by the combination of 5-FU and hmUdR” value is given as “resistant”. Besides, the “effect of caffeine on the G2/M arrest of cells incubated with 3AB, 5-FU and hmUdR” value in the data set with HT-29 cells [3] (unsynchronized HT-29 cells) is listed as “partially released the G2/M arrest”.
As to `O=Cc1cn([C@H]2C[C@H](O)[C@@H](CO)O2)c(=O)[nH]c1=O` [foUdR, 5-formyl-2′-deoxyuridine], in the data set on HT-29 cells [4] (HT-29, 72 hours), the “activity with 5-FU relative to hmUdR” value is listed as “comparable” and the “enhancement of 5-FU activity / synergy with 5-FU” value was “acted synergistically”.
On to `O=c1[nH]c(=O)n([C@H]2C[C@H](O)[C@@H](CO)O2)cc1O` [hUdR, 5-hydroxy-2′-deoxyuridine], for which the “enhancement of 5-FU activity / synergy with 5-FU” value in the data set on HT-29 cells [4] (HT-29, 72 hours) is listed as “to a lesser extent, hUdR (FIG. 5E) acted synergistically”.
Consider `O=c1[nH]c(=O)n([C@H]2C[C@H](O)[C@@H](CO)O2)cc1CCO` [heUdR, 5-hydroxyethyl-2′-deoxyuridine], for which the “enhancement of 5-FU activity / synergy with 5-FU” value with HT-29 cells [4] (HT-29, 72 hours) is “neither UdR nor heUdR significantly enhanced”.
For the molecule `O=c1[nH]c(=O)n([C@H]2C[C@H](O)[C@@H](CO)O2)cc1CO` [hmUdR, 5-Hydroxymethyl-2′-deoxyuridine], the “number of DNA single-strand breaks” value in the data set with HT-29 cells [2] is reported as “did not significantly increase”. Besides, the “number of double strand breaks” value in the data set on HT-29 cells [5] is listed as “increased”. Also, the cell cycle distribution result in the data set on HT-29 cells [3] (unsynchronized HT-29 cells, 5 μM hmUdR alone, 48 h) was “did not change the cell cycle distribution”. Further, the “number of cell divisions per view field, second 24 h period relative to first 24 h period” value in [6] was determined as 1.4±0.2 times.

B1: TRAIL: used with LY294002 as positive control for PARP1 cleavage; known to cause apoptosis (protein, UniProt P50591 1-281, looked up)
Tumor necrosis factor ligand …: MAMMEVQGGPSLGQTCVLIVIFTVLLQSLCVAVTYVYFTNELKQMQDKYSKSGIACFLKEDDSYWDPNDEESMNSPCWQVKWQLRQLVRKMILRTSEETISTVQEKQQNISPLVRERGPQRVAAHITGTRGRSNTLSSPNSKNEKALGRKINSWESSRSGHSFLSNLHLRNGELVIHEKGFYYIYSQTYFRFQEEIKENTKNDKQMVQYIYKYTSYPDPILLMKSARNSCWSKDAEYGLYSIYQGGIFELKENDRIFVSVTNEHLIDMDHEASFFGAFLVG
Regarding B1, the “PARP1 cleavage (characteristic of apoptosis)” value in the data set on PARP1 is “induced”.
